Test results published in US20110312897A1, “CATHEPSIN L PROTEOLYTICALLY PROCESSES HISTONE H3 DURING MOUSE EMBRYONIC STEM CELL DIFFERENTIATION” (THE ROCKEFELLER UNIVERSITY, priority 2008, published 2011).
Where no end group is shown, it is not given here.

Columns and labels:
Assay type in all cases: biochemical
[1] = biological target: H3 cleavage activity (Mus musculus, UniProt P06797); assay: H3 cleavage activity with addition of chelators; settings: moderately high concentrations
Description: Extracts were incubated in buffer (10 mM HEPES, 10 mM KCl, 1.5 mM MgCl2, 0.34M sucrose, 10% glycerol, 5 mM β-mercaptoethanol, all final) with 0.1 μg/μl rH3-HIS (purified from E. coli) and incubated at 37° C. for 1-3 hours. […] For MS analysis, reactions were quenched by addition of 0.1% (final) TFA. rCathepsin L (R&D Systems, # 1515-CY-010), rCathepsin B (R&D Systems Cat No. BAF965), and rCathepsin K (Calbiochem Cat. No. 342001) were purchased from commercial sources and tested in the assay with rH[…].

[2] = biological target: T1, rCathepsin L (Mus musculus, UniProt P06797); assay: ELISA based H3cs.1 cleavage assay of H3 15-31 peptides; settings: pH 7.5 and pH 5.5; compared to unmodified H3 15-31 peptide
T1 construct: purchased R&D Systems 1515-CY-010
T1 sequence (P06797 114-334): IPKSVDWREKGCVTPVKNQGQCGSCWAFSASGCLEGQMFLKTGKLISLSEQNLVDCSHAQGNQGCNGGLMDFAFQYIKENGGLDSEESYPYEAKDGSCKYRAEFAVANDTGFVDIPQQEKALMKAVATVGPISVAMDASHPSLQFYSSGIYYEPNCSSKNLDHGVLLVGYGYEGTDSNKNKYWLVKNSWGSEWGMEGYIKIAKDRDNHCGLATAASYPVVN
Description: FIG. 7A is an immunoblot showing cleavage of the modified recombinant histone 3 substrates following incubation with rCathepsin L. The four rH3 substrates used in the cleavage assay include: 1=rH3 unmodified, 2=rH3 alkylated to K27me2, 3=rH3 pan-acetylated with acetic anhydride, 4=rH3+K27me2 pan-acetylated with acetic anhydride. FIG. 7B is a graph showing the amount of recombinant H3 cleavage product formed following incubation with Cathepsin L. H3 cleavage reactions were performed as in FIG. 7A using synthesized H3 peptides representing amino acids 15 to 31. Reactions were incubated with ˜250 pmol peptide and quenched with 0.1% TFA before being plated in duplicate for ELISA with the H3cs.1 antibody. Signal was normalized to that of mock reactions for each peptide. Results represent three independent experiments. […] Binding decreases 3-fold with cleaved peptide. p<0.01. Kds are in μM±SEM. Data points represent the mean±SD
In order to test the effect of these modifications more quantitatively and specifically, a set of five peptides with identical backbone sequences flanking the H3 cleavage site (H3 15-31) were synthesized and then modified as follows: unmodified, K18 acetyl, K23 acetyl, K18ac+K23ac, and K27me2. An ELISA based assay using the H3cs.1 antibody described previously (characterized in FIG. 11) was used to quantitatively measure the H3cs.1 cleavage activity of rCathepsin L on these peptides.

[3] = biological target: T2, H3 protease activity in fraction #23 (Mus musculus, UniProt P06797); assay: In vitro H3 cleavage assay of hydroxyapatite fraction #23 +/- protease inhibitors
T2 construct: a double chain mature form at ˜25 kD and ˜5 kD; endogenous in cells; host or cells: chromatin of 3 days +RA differentiating mouse ESCs (LF2), hydroxyapatite fraction #23
T2 sequence (P06797 114-288 limits assumed): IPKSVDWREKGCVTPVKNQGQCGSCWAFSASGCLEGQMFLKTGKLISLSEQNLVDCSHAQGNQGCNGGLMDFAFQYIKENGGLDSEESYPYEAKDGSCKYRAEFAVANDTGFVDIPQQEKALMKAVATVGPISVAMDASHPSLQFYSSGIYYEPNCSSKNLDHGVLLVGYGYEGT
T2 sequence (P06797 291-334 limits assumed): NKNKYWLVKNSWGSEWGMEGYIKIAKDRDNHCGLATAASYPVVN
Description: Extracts were incubated in buffer (10 mM HEPES, 10 mM KCl, 1.5 mM MgCl2, 0.34M sucrose, 10% glycerol, 5 mM β-mercaptoethanol, all final) with 0.1 μg/μl rH3-HIS (purified from E. coli) and incubated at 37° C. for 1-3 hours. Reactions were stopped by addition of 5×SDS sample buffer and boiling; results were analyzed by immunoblotting with HIS-HRP and/or H3.cs1 antibody. For MS analysis, reactions were quenched by addition of 0.1% (final) TFA. rCathepsin L (R&D Systems, # 1515-CY-010), rCathepsin B (R&D Systems Cat No. BAF965), and rCathepsin K (Calbiochem Cat. No. 342001) were purchased from commercial sources and tested in the assay with rH3-HIS.
Three days+RA differentiating ESC chromatin pellets were solubilized by sonication in buffer A (80 mM NaPO^−4, 200 mM NaCl), injected onto a 2 or 5 mL hydroxyapatite column (BioRad), and fractionated with a 200 mM to 2M NaCl gradient. Each fraction was then assayed as described above. […] Digest was then acidified with glacial acetic acid and aliquots of samples were analyzed using an LTQ-FT as described above. Data was searched against a mouse database using SEQUEST (Eng et al., Journal of the American Society of Mass Spectrometry 5:976-989 (1994), which is hereby incorporated by reference in its entirety). All spectra of interest were manually validated.
To validate further the identification of Cathepsin L as a histone H3 protease, the enriched fractions were tested with different classes of protease inhibitors in the H3 cleavage assay.

H3 cleavage activity, sequence (P06797 114-334): as the sequence (P06797 114-334) above

`O=C(O)CN(CCOCCOCCN(CC(=O)O)CC(=O)O)CC(=O)O` [EGTA] was tested. Which H3 cleavage activity [1] did it give?
The H3 cleavage activity was “Significant inhibition”.

How did the H3 cleavage activity [1] turn out when `O=C(O)CN(CCN(CC(=O)O)CC(=O)O)CC(=O)O` [EDTA, Ethylenediaminetetraacetic acid] was run?
Its H3 cleavage activity is “Significant inhibition”.

Which “H3cs.1 cleavage activity of rCathepsin L on peptide” value (“H3cs.1 cleavage activity” for short) [2] does the source give for “K18 acetyl: synthesized H3 15-31 peptide acetylated at K18 (APRKQLATKAARKSAPA; K18 acetylation; UniProt P68433 16-32, looked up, fragment)” here?
The value was “increases”.

How did the H3 cleavage activity ([3]; AEBSF 2 mM and 10 mM) turn out when `NCCc1ccc(S(=O)(=O)F)cc1` [AEBSF] was run?
The H3 cleavage activity was “not at the lower concentrations tested”.

And the H3 cleavage activity ([3]; AEBSF 20 mM)?
The H3 cleavage activity was “modest reduction in cleavage activity”.

“K27me2: synthesized H3 15-31 peptide modified with K27me2 (APRKQLATKAARKSAPA; K27 dimethylation; UniProt P68433 16-32, looked up, fragment)” was tested. Which “H3cs.1 cleavage activity” value [2] did it give?
Its value is “strongly increases”.

How did the “H3cs.1 cleavage activity” value [2] turn out when “K23ac: synthesized H3 15-31 peptide acetylated at K23 (APRKQLATK(Ac)AARKSAPA; UniProt P68433 16-32, looked up, fragment)” was run?
Its value is “very little cleavage activity”.

With “K18ac+K23ac: synthesized H3 15-31 peptide acetylated at K18 and K23 (APRK(Ac)QLATK(Ac)AARKSAPA; UniProt P68433 16-32, looked up, fragment)” as the compound, how does the “H3cs.1 cleavage activity” value [2] read?
Its value is “very little cleavage activity”.
